Test results: PMC3064895 (Cancer Chemotherapy and Pharmacology, 2010)
Like-named read-outs stand apart in the source and are kept apart here.

Assays:
[1] = Plasma pharmacokinetics at steady state of sorafenib; format: in vivo, patients with advanced cancer; conditions: for AUC, geometric mean (% CV): AUC(0–12), n = 14; for AUC, geometric mean (% CV) / AUCnorm, geometric mean (% CV) / C max, geometric mean (% CV) / C max,norm, geometric mean (% CV) / C trough, geometric mean (% CV) / C trough,norm, geometric mean (% CV) / t max, median (range): plasma, sorafenib 400 mg bid; for AUC ratio (90% CI) / C max ratio (90% CI) / C trough ratio (90% CI): ratio of day 1 of cycle 5 versus day 1 of cycle 2
[2] = cited from earlier work
[3] = QT/QTc interval on 12-lead Holter ECG; format: in vivo, patients with advanced cancer; conditions: 2 h post-dose; oral 400-mg single dose, positive control, 1 day before cycle 1
[4] = cited from earlier work; for Patients with declines to <50 LVEF(%): Hutson et al.; for Mean change in LVEF(%): study by Chu et al.

| Compound | AUC, geometric mean (% CV) ([1]; Day 1 of cycle 2) | AUC, geometric mean (% CV) ([1]; Day 1 of cycle 5) | AUCnorm, geometric mean (% CV) ([1]; Day 1 of cycle 2) | C max, geometric mean (% CV) ([1]; Day 1 of cycle 2) | C max,norm, geometric mean (% CV) ([1]; Day 1 of cycle 2) | C trough, geometric mean (% CV) ([1]; Day 1 of cycle 2) | C trough,norm, geometric mean (% CV) ([1]; Day 1 of cycle 2) | t max, median (range) ([1]; Day 1 of cycle 2) | AUCnorm, geometric mean (% CV) ([1]; Day 1 of cycle 5) | C max, geometric mean (% CV) ([1]; Day 1 of cycle 5) | C max,norm, geometric mean (% CV) ([1]; Day 1 of cycle 5) | C trough, geometric mean (% CV) ([1]; Day 1 of cycle 5) | C trough,norm, geometric mean (% CV) ([1]; Day 1 of cycle 5) | t max, median (range) ([1]; Day 1 of cycle 5) | AUC ratio (90% CI) [1] | C max ratio (90% CI) [1] | C trough ratio (90% CI) [1] | other results |
| --- | --- | --- | --- | --- | --- | --- | --- | --- | --- | --- | --- | --- | --- | --- | --- | --- | --- | --- |
| NC(=O)c1cc(Oc2ccc(NC(=O)Nc3ccc(Cl)c(C(F)(F)F)c3)cc2)ccn1 [BAY 43-9007] | 2.0 (59.1) mg h/L | 1.1 (74.0) mg h/L | 0.4 (62.8) kg h/L | 0.2 (73.4) mg/L | 0.1 (75.2) kg/L | 0.2 (82.3) mg/L | <0.1 (85.0) kg/L | 1.00 (0–12.00) h | 0.2 (80.9) kg h/L | 0.1 (75.5) mg/L | <0.1 (78.2) kg/L | 0.1 (82.4) mg/L | <0.1 (84.8) kg/L | 2.00 (0–12.00) h | 0.57 (0.41–0.81) | 0.51 (0.38–0.68) | 0.52 (0.38–0.70) | – |
| CNC(=O)c1cc(Oc2ccc(NC(=O)Nc3ccc(Cl)c(C(F)(F)F)c3)cc2)cc[n+]1[O-] [BAY 67-3472] | 8.5 (58.3) mg h/L | 5.2 (98.7) mg h/L | 1.4 (59.6) kg h/L | 1.0 (66.8) mg/L | 0.2 (70.2) kg/L | 0.8 (81.1) mg/L | 0.1 (85.9) kg/L | 1.00 (0–12.00) h | 0.9 (103.2) kg h/L | 0.6 (96.9) mg/L | 0.1 (100.7) kg/L | 0.5 (109.4) mg/L | 0.1 (111.5) kg/L | 2.00 (0–8.12) h | 0.61 (0.41–0.92) | 0.58 (0.41–0.82) | 0.54 (0.36–0.81) | – |
| NC(=O)c1cc(Oc2ccc(NC(=O)Nc3ccc(Cl)c(C(F)(F)F)c3)cc2)cc[n+]1[O-] [BAY 68-7769] | 2.8 (92.3) mg h/L | 1.4 (129.3) mg h/L | 0.5 (91.4) kg h/L | 0.3 (101.6) mg/L | 0.1 (99.6) kg/L | 0.3 (114.5) mg/L | 0.1 (113.5) kg/L | 2.00 (0–12.00) h | 0.3 (128.1) kg h/L | 0.2 (127.2) mg/L | <0.1 (123.6) kg/L | 0.1 (127.8) mg/L | <0.1 (124.7) kg/L | 2.00 (0–8.05) h | 0.50 (0.28–0.89) | 0.47 (0.28–0.80) | 0.49 (0.29–0.83) | – |
| COc1c(N2C[C@@H]3CCCN[C@@H]3C2)c(F)cc2c(=O)c(C(=O)O)cn(C3CC3)c12 [Moxifloxacin] | – | – | – | – | – | – | – | – | – | – | – | – | – | – | – | – | – | Increase in QT/QTc interval [2]: 5 to 10 ms; Mean (SD) change from baseline in QT [3]: 5.7 (24.3) ms; Mean (SD) change from baseline in QTcB [3]: 4.4 (12.9) ms; Mean (SD) change from baseline in QTcF [3]: 4.9 (13.7) ms |
| CCN(CC)CCNC(=O)c1c(C)[nH]c(/C=C2\C(=O)Nc3ccc(F)cc32)c1C [sunitinib] | – | – | – | – | – | – | – | – | – | – | – | – | – | – | – | – | – | Patients with declines to <50 LVEF(%) ([4]; after 1 cycle (6 weeks)): 12%; Patients with declines to <50 LVEF(%) ([4]; after 1 year): 10%; Mean change in LVEF(%) ([4]; after 2 cycles): −2.2 LVEF(%); Patients with declines to <50 LVEF(%) ([4]; after 2 years): 5%; Mean change in LVEF(%) ([4]; after 4 cycles): −5.1 LVEF(%); Incidence of ≥10 LVEF(%) reduction ([4]; observational study by Schmidinger et al.): 14% |
